In patent US20200129476A1, “PARP Inhibitor in Combination with a Glucocorticoid and/or Ascorbic Acid and/or a Protein Growth Factor for the Treatment of Impaired Wound Healing” (AKRIBES BIOMEDICAL GMBH, priority 2017, published 2020):
Entries after “also recorded” stand apart in the source; their conditions may differ.

Assays:
[1] = system: primary human dermal fibroblasts (HDF); experiment: Primary human dermal fibroblast (HDF) proliferation assay (2D), with or without wound exudate; format: cell-based; details: for HDF proliferation, PARP inhibitor alone: talazoparib 1 μM
Description: Primary human dermal fibroblasts (HDF) were purchased from CELLnTEC, Bern. They were routinely grown in Dulbecco's modified Eagle's medium (DMEM) containing 10% FCS, 2 mM glutamine, and 100 U/ml penicillin/100 μg/ml streptomycin. Media, antibiotics, and glutamine were bought from Lonza. The cells were used at passage 5-15. Cells were trypsinized and seeded at 5000 cells/well in 200 μl into the inner wells of 96-well plates. The outer wells were loaded with sterile water. The cells were allowed to adhere overnight and then incubated for 72 hours at 37° C. under the following conditions: graded compound concentrations or 20 ng/ml PDGF-BB (Tonbo Biosciences) in the absence or presence of different dilutions of sterile-filtered WE in medium. For control samples, 200p1 medium was added instead of specific stimuli. Alternatively, the cells were seeded into 384-well plates at 2500 cells/well directly together with test compounds or growth factors and WE or medium in a total volume of […].
At the end of the 72-hour incubation period, supernatants were removed for the determination of IL-1ß, and the cells were fixed with 4% paraformaldehyde (Morphisto) for 15 minutes at room temperature and washed 3 times with PBS. A control plate was fixed after the overnight adherence of the cells (day 1) to determine the starting cell number.
Total cellular protein was determined as a measure of cell number by staining the fixed cells with sulforhodamine B (SRB, Sigma). A 0.4% SRB solution in 1% acetic acid was added to the wells for 30 minutes. The wells were then washed with 1 acetic acid until the wash solution remained colorless. After drying, the dye was eluted with 10 mM Tris.HCl, pH8.5, and absorbance was measured either at 550 or 492 nm for lower and higher cell densities, respectively. The average absorbance of the sample representing the day 1 starting cell number (for 96-well plates) was subtracted from the absorbance values of the WE-treated cells.
All experiments were carried out in triplicate for each sample and concentration, and means±standard deviation (SD) were used for the evaluation of the experiment. Results are expressed as percentage of control values for unstimulated cells.
Low molecular weight compounds (see list in Table 1) were dissolved in DMSO (Bioreagent for cell culture, Sigma) at 10 mM or 100 mM and diluted at least 1:1000 in medium for cellular assays (final DMSO concentration ≤0.1%).
Cells were incubated with compounds for 72 hours in proliferation assays and up to 8 days for FDM assay (refreshed after 4 days). When compounds were tested for their effect on WE stimulation, the incubation of cells with compounds was started and ended simultaneously with WE-incubation.

macrophages = experiment: Fibroblast-macrophage coculture with wound exudate: live cells in FACS CD45-gate; format: cell-based, human; details: WE #78
Description: CD14^+ monocytes, isolated from PBMC of healthy donors by magnetic bead separation were incubated either alone or in the presence of primary human dermal fibroblasts (CelINTec) or fibroblast-derived matrices (FDM). FDM had been generated from primary human dermal fibroblasts by a 3-week incubation with the growth supplements vitamin C or insulin and EGF (vitamin C: 2-phospho-L-ascorbic acid trisodium salt, 100 μg/ml; human EGF, 5 ng/ml; human insulin, 5 μg/ml). Alternatively, fibroblast monolayer cultures can be used as well. […]
Supernatants were harvested and frozen for cytokine determination by ELISA, and cells were harvested and subjected to FACS analysis, gating on the monocyte population. Geometric means or mean fluorescence intensities (MFI) were used to quantify surface marker expression.
Cells were harvested and resuspended in FACS buffer (PBS containing 2% FCS). […] Co-staining with CD45 eFluor (#506 69-0459-42) was used to distinguish macrophages from primary human fibroblasts when analyzed from co-cultures. After washing cells with FACS buffer, they were fixed with 1% paraformaldehyde in PBS and stored at 4° C. in the dark until data were acquired on a Gallios flow cytometer from Beckman Coulter and analyzed with the Kaluza analysis software 1.3.

SMILES: C[C@]1(c2nc3c(C(N)=O)cccc3[nH]2)CCCN1 [veliparib, 2-((2R)-2-methylpyrrolidin-2-yl)-1H-benzimidazole-4-carboxamide]
- cell proliferation under wound exudate-induced inhibition ([1]; FIG. 22, WE #43 and #78 used with veliparib): enhanced cell proliferation
- HDF proliferation, PARP inhibitor plus PDGF ([1]; PARP inhibitor dose series + PDGF 20 ng/ml, WE #78 (FIG. 18)): even further enhanced by the addition of PDGF
- effect on fibroblast proliferation compared across patients ([1]; WE from patients #49, #43, #78, #27): most prominent in the two patients with diabetes
- reproducibility of effect on fibroblast proliferation ([1]; WE samples #77 and #78 of one patient (day 1 and day 8)): reproducible in different samples of the same patient
- fibroblast (HDF) proliferation ([1]; presence of WE #43): strongly beneficial effects
- fibroblast (HDF) proliferation ([1]; presence of WE #78 (diabetic patient)): completely reversed inhibition of wound exudate (WE)-induced fibroblast proliferation; also recorded: dose-dependent increase of HDF proliferation
- fibroblast (HDF) proliferation ([1]; presence of WE #78 (diabetic patient), listed as Veliparib): completely reversed inhibition of wound exudate (WE)-induced fibroblast proliferation; also recorded: strongly beneficial effects
- fibroblast (HDF) proliferation ([1]; presence of wound exudate (WE) of patients, several or unspecified WE): could be confirmed in a number of further wound exudate samples from other patients
- HDF proliferation, PARP inhibitor plus PDGF ([1]; veliparib 10 μM, talazoparib 1 μM + PDGF 20 ng/ml, WE #78 (FIG. 17B)): additively or synergistically enhanced by PDGF
- HDF proliferation, PARP inhibitor alone ([1]; veliparib 10 μM, WE #78 (FIG. 17B)): induce proliferation
- HDF proliferation, PARP inhibitor alone ([1]; veliparib 10 μM, absence of WE (FIG. 17A)): no or an inhibitory effect on fibroblasts on their own
- HDF proliferation, PARP inhibitor alone ([1]; veliparib 10 μM, absence of WE (FIG. 17A), listed as Veliparib): no or even an inhibitory effect on fibroblasts on their own
- percentage of live cells in the FACS CD45-gate, veliparib with dexamethasone (macrophages; veliparib 10 μM + dexamethasone 10 nM): further increased
- percentage of live cells in the FACS CD45-gate (macrophages; veliparib 10 μM or dexamethasone 10 nM alone): increased
